Source: patent US10414768B2, “Compounds for treating cystic fibrosis” (CENTRE NATIONAL DE LA RECHERCHE SCIENTIFIQUE (CNRS), priority 2014, dated 2019)

What follows are compounds tested against T1, F508del-CFTR (Homo sapiens, UniProt P13569, DEL508-508) (assay: Iodide (125I) efflux from HeLa cells expressing F508del-CFTR). Conditions: HeLa, activators Fsk 10 μM + Gst 30 μM, relative to VX809 normalized at 100%, untreated cells 3.6%.
T1 construct: expressed in transfected cells; host or cells: HeLa cells (spTCF-ΔF), selected with Zeocin
Format: cell-based
Method: Pharmacology, chemicals and reagents. The CFTR activator forskolin and potentiator genistein (Illek et al., 1995) were purchased from LC Laboratories (PKC Pharmaceuticals, Woburn, Mass.). We purchased DIDS (5-Isothiocyanato-2-[2-(4-isothiocyanato-2-sulfophenyl)ethenyl]benzene-1-sulfonic acid) and VX809 (3-(6-(1-(2,2-difluorobenzo[d][1,3]dioxol-5-yl)cyclopropanecarboxamido)-3-methylpyridin-2-yl)benzoic acid) from Selleckchem (Houston, USA). Stock solutions of F (10 mM), G (30 mM), CFTRinh-172 (10 mM), VX809 (10 mM), were prepared in DMSO. We prepared stock solution of iminosugars, miglustat and IsoLAB ([1,4-dideoxy-2-hydroxymethyl-1,4-imino-L-threitol]) dissolved in water (100 mM) before further dilution. Methods Cell culture. HeLa cells expressing wild-type CFTR (spTCF-wt) or F508del-CFTR (spTCF-ΔF) were cultured in Dulbecco's modified Eagle's medium+GlutaMAX™-I (Invitrogen) supplemented with 8% (v/v) fetal bovine serum (FBS), 1% (v/v) penicillin/streptomycin and were selected using Zeocin (50 μg/mL). Both cell lines were grown in standard culture conditions (37° C., 5% C02). Cells were plated in 35 mm plastic dishes for whole-cell patch-clamp recordings and western blot analysis and in 96-well plates for cytotoxicity assay. For all cell culture, culture media were renewed every 2 days. Western Blot analysis. Cell lysates (10 mM Tris, 1% Nonidet P-40, 0.5% sodium deoxycholate, pH 7.5) were separated 72 h after seeding for HeLa cells by 5% SDS-PAGE (50 μg of protein/well). After saturation, nitrocellulose membrane was incubated overnight at 4° C. in phosphate-buffered saline, 0.1% Tween 20 with 1 μg/ml mouse anti-CFTR monoclonal antibody (clone MAB3480; Chemicon International, Millipore Bioscience Research Reagents, Temecula, Calif.). After washing, goat peroxidase-conjugated anti-mouse IgG (1:10 000; Sigma-Aldrich) was used as secondary antibody. CFTR was visualized by chemiluminescence with ECL Western blotting detection reagent (GE Healthcare, Buckinghamshire, UK). Iodide efflux. CFTR chloride channel activity was assayed by measuring the rate of iodide (^125I) efflux from living cells. All experiments were performed with a MultiPROBE® IIex robotic liquid handling system (Perkin Elmer Life Sciences, Courtaboeuf, France). At the beginning of each experiment, cells were washed twice with efflux buffer containing (in mM) 136.9 NaCl, 5.4 KCl, 0.3 KH2PO4, 0.3 NaH2PO4, 1.3 CaCl2, 0.5 MgCl2, 0.4 MgSO4, 5.6 glucose and 10 HEPES, pH 7.4. Cells were incubated in efflux buffer containing Na^125I (1 μCi Na^125I/ml, NEN, Boston, Mass.) during 1 h at 37° C., then washed with efflux medium to remove extracellular ^125I. The loss of intracellular ^125I was determined by removing the medium with efflux buffer every 1 min for up to 10 min. The first three aliquots were used to establish a stable baseline in efflux buffer alone. A medium containing the activators of CFTR (Fsk 10 μM+Gst 30 μM) and the appropriate drug was used for the remaining aliquots. Residual radioactivity was extracted with 0.1 N NaOH/0.1% SDS, and determined using a Packard Cobra™ II gamma counter (Perkin Elmer life Sciences, Courtaboeuf, France). The fraction of initial intracellular ^125I lost during each time point was collected and time-dependent rates of ^125I efflux calculated from: ln (^125It1/^125It2)/(t1−t2) where ^125It is the intracellular ^125I at time t, and t1 and t2 successive time points. Curves were constructed by plotting rate of 125I versus time. All comparisons were based on maximal values for the time-dependent rates (k=peak rates, min−1) excluding the points used to establish the baseline (kpeak−kbasal, min^−1), and histograms were presented as percentage of activation. Time dependence. Time dependence of the compounds was assayed by measuring the time necessary for an optimal correction of the protein F508del-CFTR. […]

T1 sequence (P13569 with tags, fused parts or gaps DEL508-508): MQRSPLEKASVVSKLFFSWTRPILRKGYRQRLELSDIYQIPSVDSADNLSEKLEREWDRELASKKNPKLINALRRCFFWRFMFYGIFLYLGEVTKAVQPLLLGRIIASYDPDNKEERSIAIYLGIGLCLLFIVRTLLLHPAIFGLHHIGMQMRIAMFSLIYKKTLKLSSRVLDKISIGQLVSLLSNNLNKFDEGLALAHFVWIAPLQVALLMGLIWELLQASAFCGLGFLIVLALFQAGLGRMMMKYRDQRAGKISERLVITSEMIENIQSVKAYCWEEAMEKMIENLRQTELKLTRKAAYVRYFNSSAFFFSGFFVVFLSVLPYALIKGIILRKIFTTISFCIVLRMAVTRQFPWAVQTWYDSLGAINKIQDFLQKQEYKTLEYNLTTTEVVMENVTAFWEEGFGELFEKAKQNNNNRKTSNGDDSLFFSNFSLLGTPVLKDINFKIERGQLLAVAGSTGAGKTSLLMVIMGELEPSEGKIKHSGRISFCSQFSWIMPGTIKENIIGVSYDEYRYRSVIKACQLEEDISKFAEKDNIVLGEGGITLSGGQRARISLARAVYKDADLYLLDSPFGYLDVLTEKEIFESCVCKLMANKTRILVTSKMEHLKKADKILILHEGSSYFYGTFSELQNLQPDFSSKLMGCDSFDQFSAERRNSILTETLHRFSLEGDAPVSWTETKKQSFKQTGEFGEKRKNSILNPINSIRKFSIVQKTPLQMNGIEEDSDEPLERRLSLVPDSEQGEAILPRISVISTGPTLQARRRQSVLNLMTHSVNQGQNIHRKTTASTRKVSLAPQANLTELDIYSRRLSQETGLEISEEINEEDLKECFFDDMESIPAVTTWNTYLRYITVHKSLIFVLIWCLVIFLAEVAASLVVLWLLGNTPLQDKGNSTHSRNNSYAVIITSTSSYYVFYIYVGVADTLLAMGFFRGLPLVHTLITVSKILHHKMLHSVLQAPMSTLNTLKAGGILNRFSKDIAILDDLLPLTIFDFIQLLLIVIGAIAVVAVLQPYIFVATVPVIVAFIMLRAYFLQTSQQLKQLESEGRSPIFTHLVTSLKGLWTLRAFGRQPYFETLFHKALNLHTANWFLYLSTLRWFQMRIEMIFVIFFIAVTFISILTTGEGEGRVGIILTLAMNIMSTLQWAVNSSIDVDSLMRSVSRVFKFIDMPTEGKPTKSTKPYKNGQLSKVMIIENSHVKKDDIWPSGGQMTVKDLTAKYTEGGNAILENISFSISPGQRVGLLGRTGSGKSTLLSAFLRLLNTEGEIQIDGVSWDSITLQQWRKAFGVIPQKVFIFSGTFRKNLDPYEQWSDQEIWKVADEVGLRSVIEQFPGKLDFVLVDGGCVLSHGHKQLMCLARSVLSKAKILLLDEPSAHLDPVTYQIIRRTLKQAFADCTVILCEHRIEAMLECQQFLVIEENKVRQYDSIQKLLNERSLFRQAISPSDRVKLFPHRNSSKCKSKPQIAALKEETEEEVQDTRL

Emax [%]	Compound
10 to 35	NC(=O)c1ccc(-n2cnc3c(Cl)nc(Cl)nc32)cc1 [Compound 79, 4-(2,6-dichloro-9H-purin-9-yl)benzamide]
10 to 35	Clc1nc(Cl)c2ncn(-c3ccccc3)c2n1 [Compound 80, 2,6-dichloro-9-phenyl-9H-purine]
10 to 35	C[C@H](Nc1nc(Cl)nc2c1ncn2-c1ccccc1)C(=O)OC(C)(C)C [Compound 81, (S)-tert-butyl 2-((2-chloro-9-phenyl-9H-purin-6-yl)amino)propanoate]
10 to 35	C[C@H](Nc1nc(NCCCc2ccccc2)nc2c1ncn2-c1ccccc1)C(=O)O [Compound 83, (S)-2-((9-phenyl-2-((3-phenylpropyl)amino)-9H-purin-6-yl)amino)propanoic acid]
10 to 35	COc1ccc(CCNc2nc(NCc3ccc(OC)cc3)c3ncn(-c4ccccc4)c3n2)cc1 [Compound 85, N6-(4-methoxybenzyl)-N2-(4-methoxyphenethyl)-9-phenyl-9H-purine-2,6-diamine]
10 to 35	CC(=O)c1ccc(-n2cnc3c(Cl)nc(Cl)nc32)cc1 [Compound 86, 1-(4-(2,6-dichloro-9H-purin-9-yl)phenyl)ethanone]
10 to 35	COc1ccc(CNc2nc(NCc3ccc(OC)cc3)c3nc[nH]c3n2)cc1 [Compound 88, N2,N6-bis(4-methoxybenzyl)-9H-purine-2,6-diamine]
10 to 35	COc1ccc(CNc2nc(Cl)nc3c2ncn3Cc2ccc(C(N)=O)cc2)cc1 [Compound 89, 4-((2-chloro-6-((4-methoxybenzyl)amino)-9H-purin-9-yl)methyl)benzamide]
10 to 35	COC(=O)c1ccc(-n2cnc3c(Cl)nc(Cl)nc32)cc1 [Compound 90, methyl 4-(2,6-dichloro-9H-purin-9-yl)benzoate]
10 to 35	COc1ccc(-n2cnc3c(O)nc(N)nc32)cc1OC [Compound 91, 2-amino-9-(3,4-dimethoxyphenyl)-9H-purin-6-ol]
10 to 35	NC(=O)c1ccc(Cn2cnc3c(Cl)nc(Cl)nc32)cc1 [Compound 93, 4-((2,6-dichloro-9H-purin-9-yl)methyl)benzamide]
10 to 35	Clc1nc(Cl)c2ncn(-c3cccnc3)c2n1 [Compound 94, 2,6-dichloro-9-(pyridin-3-yl)-9H-purine]
10 to 35	NC(=O)c1cccc(-n2cnc3c(Cl)nc(Cl)nc32)c1 [Compound 95, 3-(2,6-dichloro-9H-purin-9-yl)benzamide]
10 to 35	COc1ccc(CNc2nc(Cl)nc3c2ncn3C2CCCCO2)cc1 (stereo not shown) [Compound 97, 2-chloro-N-(4-methoxybenzyl)-9-(tetrahydro-2H-pyran-2-yl)-9H-purin-6-amine]
10 to 35	COc1ccc(CNc2nc(OCCc3ccccc3)nc3c2ncn3C2CCCCO2)cc1 (stereo not shown) [Compound 98, N-(4-methoxybenzyl)-2-phenethoxy-9-(tetrahydro-2H-pyran-2-yl)-9H-purin-6-amine]
35 to 60	Nc1nc(NCCc2ccc(F)cc2)nc2[nH]cnc12 [Compound 104, N2-(4-fluorophenethyl)-9H-purine-2,6-diamine]
35 to 60	Nc1nc(Nc2ccc(CO)cc2)c2ncn(-c3ccc(CO)cc3)c2n1 [Compound 117, (4-(2-amino-6-((4-(hydroxymethyl)phenyl)-amino)-9H-purin-9-yl)phenyl)methanol]
≥ 60	C[C@H](Nc1nc(Cl)nc2c1ncn2-c1ccccc1)C(=O)O [Compound 118, (S)-2-((2-chloro-9-phenyl-9H-purin-6-yl)amino)propanoic acid]
35 to 60	NC(=O)c1ccc(Cn2cnc3c(N[C@@H](CO)C(=O)O)nc(Cl)nc32)cc1 [Compound 119, (S)-2-((9-(4-carbamoylbenzyl)-2-chloro-9H-purin-6-yl)amino)-3-hydroxypropanoic acid]
10 to 35	C[C@H](Nc1nc(Cl)nc2c1ncn2Cc1ccc(C(N)=O)cc1)C(=O)OC(C)(C)C [Compound 121, (S)-tert-butyl 2-((9-(4-carbamoylbenzyl)-2-chloro-9H-purin-6-yl)amino)propanoate]

Further lines, the compound ahead of its results:

Compound	Emax [%]
C[C@H](Nc1nc(NCCCc2ccccc2)nc2c1ncn2-c1ccccc1)C(=O)OC(C)(C)C [Compound 82, (S)-tert-butyl 2-((9-phenyl-2-((3-phenylpropyl)amino)-9H-purin-6-yl)amino)propanoate]	10 to 35
Nc1nc(O)c2ncn(-c3ccccc3)c2n1 [Compound 92, 2-amino-9-phenyl-9H-purin-6-ol]	10 to 35
NC(=O)c1ccc(Nc2cc(O)nc(O)n2)cc1 [Compound 96, 4-((2,6-dihydroxypyrimidin-4-yl)amino)benzamide]	10 to 35
Nc1nc(Cl)c(NC=O)c(Cl)n1 [Compound 101, N-(2-amino-4,6-dichloropyrimidin-5-yl)formamide]	35 to 60
Nc1ncnc(N)c1N [Compound 102, pyrimidine-4,5,6-triamine]	≥ 60
O=[N+]([O-])c1c(O)nc(O)nc1Cl [Compound 103, 6-chloro-5-nitropyrimidine-2,4-diol]	10 to 35
NC(=O)c1ccc(Nc2ccncc2[N+](=O)[O-])cc1 [Compound 105, 4-((3-nitropyridin-4-yl)amino)benzamide]	≥ 60
NC(=O)c1ccc(Nc2ncnc(Cl)c2[N+](=O)[O-])cc1 [Compound 106, 4-((6-chloro-5-nitropyrimidin-4-yl)amino)benzamide]	10 to 35
NC(=O)c1ccc(Nc2ncncc2N)cc1 [Compound 107, 4-((5-aminopyrimidin-4-yl)amino)benzamide]	≥ 60
NC(=O)c1ccc(Sc2ncnc(Cl)c2N)cc1 [Compound 108, 4-((5-amino-6-chloropyrimidin-4-yl)thio)benzamide]	10 to 35
Cc1ccc(Nc2ncnc(Cl)c2N)cc1 [Compound 109, 6-chloro-N4-(p-tolyl)pyrimidine-4,5-diamine]	35 to 60
Nc1c(Cl)ncnc1Nc1ccc(F)cc1 [Compound 110, 6-chloro-N4-(4-fluorophenyl)pyrimidine-4,5-diamine]	10 to 35
Nc1cncnc1Cl [Compound 111, 4-chloropyrimidin-5-amine]	35 to 60
NC(=O)c1ccc(-n2ccc3c(Cl)ncnc32)cc1 [Compound 112, 4-(4-chloro-7H-pyrrolo[2,3-d]pyrimidin-7-yl)benzamide]	10 to 35
NC(=O)c1ccc(-c2nc(N)nc3[nH]cnc23)cc1 [Compound 113, 4-(2-amino-9H-purin-6-yl)benzamide]	≥ 60
NC(=O)c1ccc(Nc2c[n+]([O-])ccc2[N+](=O)[O-])cc1 [Compound 114, 3-((4-carbamoylphenyl)amino)-4-nitropyridine 1-oxide]	≥ 60
NC(=O)c1ccc(Nc2ncccc2N)cc1 [Compound 115, 2-((4-carbamoylphenyl)amino)-pyridin-3-aminium chloride]	≥ 60
NC(=O)c1ccc(-n2cnc3cncnc32)cc1 [Compound 116, 4-(9H-purin-9-yl)benzamide]	35 to 60
CC(=O)Nc1ccc(Nc2ncnc(Cl)c2[N+](=O)[O-])cc1 [Compound 120, N-(4-((6-chloro-5-nitropyrimidin-4-yl)amino)phenyl)acetamide]	35 to 60
NC(=O)c1ccc(-n2c(=O)[nH]c3c(Cl)ncnc32)cc1 [Compound 122, 4-(6-chloro-8-oxo-7H-purin-9(8H)-yl)benzamide]	10 to 35
